# Reference: US6472198B1, “Slow release substrates for driving microbial transformations of environmental contaminants” (The State of Oregon Acting by and through the State Board …, priority 1998, dated 2002)
# Entries after “also recorded” stand apart in the source; their conditions may differ.
# Assays:
# [1] = test system: Pt. Mugu groundwater and aquifer solids microcosm; assay: Anaerobic reductive dechlorination of TCE in Pt. Mugu microcosm amended with TBOS; assay type: cell-based; settings: for incubation time after which dechlorination of the substance was observed: TCE 5 mg/L, Pt. Mugu microcosm
# [2] = Hydrolysis rate category of organosilanes and organosiloxanes, approximately based on half lives; assay type: physicochemical; design: key: Slow - 1 month; Very Slow - Several months; Very Fast - days; Fast - weeks
# [3] = Hydrolysis period of slow release compounds in bioremediation studies; assay type: physicochemical; settings: TBOS to 1-butanol, TPOS to phenol
# Text: These alcohols can then be used by the microorganisms to cometabolize halogenated organics, such as TCE, for example. As discussed in the Examples below, the decrease in TBOS in a poisoned (killed) control compared similarly to the nonpoisoned (live) microbially active system under anaerobic conditions. Microbial activity was indicated by the production of acetate, butanol, butyrate, and hydrogen in the live microcosms, and the lack of production in the poisoned control. […] Thus, TBOS is not directly degraded, but is first hydrolyzed by reactions with water to form 1-butanol, which can then be used to drive the aerobic cometabolism of chlorinated organics.
# [4] = Abiotic hydrolysis of TBOS and TKEBS in sterilized pH buffered solutions; assay type: physicochemical; settings: for effect of temperature on hydrolysis: pH 7, 10 mg/L, 15 °C vs 30 °C; for factor of increase in rate of hydrolysis on ten-fold increase in concentration: pH 7, 30 °C, 10 mg/L to 100 mg/L
# [5] = Solubility in water (statement); assay type: physicochemical
# [6] = test system: microbial culture grown on TBOS; assay: Aerobic cometabolism of TCE by microorganisms grown on TBOS; assay type: cell-based
# Protocol: (§1) Gas phase TCE and cis-DCE concentrations were measured by injecting 10-100 μL of a gaseous sample into a HP-5890 gas chromatograph connected to a photoionization detector (PID) followed by a flame ionization detector (FID). Chromatographic separation was carried-out with a 30-m megabore GSQ-PLOT column from J&W Scientific (Folsom, Calif.). The GC operating conditions were as follows: injector temperature, 250° C.; detector temperature: 280° C.; the column was initially maintained at 40° C. for 2 minutes and then heated to 220° C. at 15° C./minute.
# The microcosms for aerobic cometabolism studies were carried out as described in Example 1 under the heading “Aerobic Biodegradation.” The bacterial culture used was that described in Example 1 under the heading “Enrichment of Aerobic Culture.” cis-DCE and TCE stocks in water were prepared by saturating distilled water with cis-DCE and TCE at 30° C. TCE and cis-DCE dissolved in the water to their solubility limit. The aqueous phase from these stocks was then added to the microcosms to yield the required concentrations (0.8 mg/L for TCE and 2 mg/L for cis-DCE). TBOS was introduced into the microcosms by injecting pure TBOS liquid using a microliter syringe.
# Microbial culture from the wastewater treatment plant of Corvallis, Oregon grown on TBOS was tested for its ability to cometabolize TCE and cis-DCE. Microcosms were constructed with 4.0 mg (dry weight) of culture enriched from a continuous-feed batch reactor according to the procedure described in Example 1. Three microcosms and a control were evaluated: a poisoned control (i.e., a killed microcosm) with TBOS and TCE; a biologically active microcosm with TBOS and TCE; and a resting cell microcosm with only TCE; and an acetylene block microcosm with TBOS and TCE (having acetylene in the head space). The acetylene block experiment was used to investigate the presence of a monooxygenase enzyme.
# [7] = test system: indigenous microorganisms in groundwater (Lawrence Livermore Site 300); assay: Anaerobic reductive dechlorination of TCE in Site 300 groundwater microcosms containing TKEBS; assay type: cell-based
# Protocol: In initial studies, groundwater from Lawrence Livermore Laboratory(Site 300, D3 Well) was used to make up six different microcosms. Two of these microcosms were sterilized to form controls, one by the addition of mercuric chloride and the other by autoclaving. Two microcosms were amended with sodium benzoate (200 mg/L) as an additional carbon source and the last two were left untouched.
# Later experiments were carried out to re-evaluate the anaerobic TCE transformation rates driven by TKEBS transformation. The culture used for these biodegradation studies were indigenous microorganisms stimulated from the groundwater (as described in Example 1) collected from the same site initially studied. The anaerobic biodegradation studies were carried out using 1L media bottles. The microcosms were prepared in an anaerobic glove box and then purged using treated (to remove oxygen) nitrogen to remove the hydrogen and carbon dioxide introduced into the microcosms from the glove box.
# The groundwater was purged with treated nitrogen to remove all traces of TCE and cis-DCE prior to re-injection of TCE. Pure TCE was added to obtain concentrations of 100 mg/L(aqueous). […] The microcosms were analyzed for chlorinated ethenes, hydrogen, carbon dioxide, alcohols, and their fermentation products.
# [8] = test system: microbially active Site 300 groundwater microcosm; assay: Reductive dechlorination of TCE in Site 300 groundwater microcosm with TBOS and TKEBS added; assay type: cell-based; settings: TCE additions at 0, 135, 160 days
# Protocol: The TCE dechlorination experiments were conducted in the same way as described in Example 3. In these experiments, however, TBOS and TKEBS were amended to samples of the groundwater microcosms.
# Shown in FIGS. 11a-11c is a microbial active version of a Site 300 microcosm with TBOS and TKEBS added. However in this case both ethybutanol and butanol are utilized, compared to the poisoned control where they accumulated. Acetate, butyrate and hydrogen are produced as a result of fermentation reactions. […] Three additions of TCE are transformed at 0, 135, and 160 days, with the corresponding increases in c-DCE occurring. Hydrogen is shown to be utilized upon TCE addition and produced once TCE transformation has stopped.
# [9] = test system: microbial culture grown on TBOS; settings: cited from earlier work
# [10] = test system: microbial culture grown on TBOS; assay: Aerobic cometabolism of cis-DCE by microorganisms grown on TBOS; assay type: cell-based; settings: biologically active microcosm
# Protocol: as §1
# The microcosms for aerobic cometabolism studies were carried out as described in Example 1 under the heading “Aerobic Biodegradation.” The bacterial culture used was that described in Example 1 under the heading “Enrichment of Aerobic Culture.” cis-DCE and TCE stocks in water were prepared by saturating distilled water with cis-DCE and TCE at 30° C. TCE and cis-DCE dissolved in the water to their solubility limit. […]
# The microbial culture grown on TBOS was tested for its ability to cometabolize cis-DCE. […] Four microcosms and two controls were evaluated: a poisoned control with TBOS and cis-DCE; an autoclaved control with TBOS and cis-DCE; two biologically active microcosms with TBOS and cis-DCE; a resting cell microcosm with only cis-DCE; and an acetylene block microcosm with TBOS and cis-DCE.
# [11] = organosilanes, Table 1, rates approximately based on half lives
# [12] = organosiloxanes, Table 2, key given under Table 1
# [13] = pH 7.8 (site groundwater), 30 °C, 10 mg/L
compound,measurement,setting,value
"C=CCl [VC, vinyl chloride]",incubation time after which dechlorination of the substance was observed,[1]; TBOS 1 g/L,about 125 days
Tetrakis(1-hydroxypropoxy) silane [compound 17],Hydrolysis rate,[2]; [11],Fast
CCCO[Si](OCCC)(OCCC)O[Si](OCCC)(OCCC)OCCC [compound 20],Hydrolysis rate,[2]; [12],Slow (Slow - 1 month)
CCO[Si](OCC)(OCC)O[Si](OCC)(OCC)O[Si](OCC)(OCC)OCC [compound 23],Hydrolysis rate,[2]; [12],Slow (Slow - 1 month)
"Cl/C=C\Cl [cis-DCE, cis-dichloroethylene]",incubation time after which dechlorination of the substance was observed,[1]; TBOS 1 g/L,about 90 days
"CCC(=O)O[Si](OC(=O)CC)(OC(=O)CC)OC(=O)CC [compound 6, Silicon tetrapropionate]",Hydrolysis rate,[2]; [11],Fast
"CCCCO[Si](OCCCC)(OCCCC)OCCCC [No. 2, Tetrabutoxysilane]",period over which hydrolysis to the alcohol occurs,[3],two month
same,duration of TCE transformation resulting from addition of only TBOS,[1]; TBOS 1 g/L added at start of test,over 500 days
same,persistence of TBOS in the microcosm,"[1]; anaerobic Pt. Mugu microcosm, TBOS 1 g/L",over 450 days
same,1-butanol formed per TBOS hydrolyzed,"[4]; 30 °C, 10 mg/L",4 moles of 1-butanol per mole of TBOS
same,rate of transformation at pH 5 and pH 9 compared to pH 7,"[4]; 30 °C, 10 mg/L",increased by a factor of two
same,Rates of Hydrolysis Based on 1-butanol production,"[4]; pH 5.0, 30 °C, 10 mg/L",0.19 µmol/day
same,Rates of Hydrolysis Based on TBOS degradation,"[4]; pH 5.0, 30 °C, 10 mg/L",-0.160 µmol/day
same,effect of temperature on hydrolysis,[4],Very little increase
same,Rates of Hydrolysis Based on 1-butanol production,"[4]; pH 7.0, 15 °C, 10 mg/L",0.08 µmol/day
same,Rates of Hydrolysis Based on TBOS degradation,"[4]; pH 7.0, 15 °C, 10 mg/L",-0.060 µmol/day
same,Rates of Hydrolysis Based on 1-butanol production,"[4]; pH 7.0, 30 °C, 10 mg/L",0.08 µmol/day
same,Rates of Hydrolysis Based on TBOS degradation,"[4]; pH 7.0, 30 °C, 10 mg/L",-0.062 µmol/day
same,factor of increase in rate of hydrolysis on ten-fold increase in concentration,[4],4
same,Rates of Hydrolysis Based on 1-butanol production,"[4]; pH 7.0, 30 °C, 100 mg/L",0.26 µmol/day
same,Rates of Hydrolysis Based on TBOS degradation,"[4]; pH 7.0, 30 °C, 100 mg/L",-0.208 µmol/day
same,Rates of Hydrolysis Based on 1-butanol production,[4]; [13],0.16 µmol/day
same,Rates of Hydrolysis Based on TBOS degradation,[4]; [13],-0.110 µmol/day
same,Rates of Hydrolysis Based on 1-butanol production,"[4]; pH 9.0, 30 °C, 10 mg/L",0.22 µmol/day
same,Rates of Hydrolysis Based on TBOS degradation,"[4]; pH 9.0, 30 °C, 10 mg/L",-0.151 µmol/day
same,solubility,[5],very low
"CCC(CC)CO[Si](OCC(CC)CC)(OCC(CC)CC)OCC(CC)CC [compound 3, Tetrakis(2-ethylbutoxy) silane]",Hydrolysis rate,[2]; [11],Very Slow
CCO[Si](OCC)(OCC)O[Si](OCC)(OCC)OCC [compound 19],Hydrolysis rate,[2]; [12],Slow (Slow - 1 month)
"CCC(CC)CO[Si](OCC(CC)CC)(OCC(CC)CC)OCC(CC)CC [No. 3, Tetrakis(2-ethylbutoxy) silane]",rate of hydrolysis compared with TBOS,[4]; listed as TKEBS,much slower rate; also recorded: about an order of magnitude lower
same,Rates of Hydrolysis Based on 2-ethyl-butanol production,"[4]; pH 5.0, 30 °C, 10 mg/L",0.023 µmol/day
same,effect of temperature on hydrolysis,[4],Very little increase
same,Rates of Hydrolysis Based on 2-ethyl-butanol production,"[4]; pH 7.0, 15 °C, 10 mg/L",0.011 µmol/day
same,Rates of Hydrolysis Based on 2-ethyl-butanol production,"[4]; pH 7.0, 30 °C, 10 mg/L",0.012 µmol/day
same,factor of increase in rate of hydrolysis on ten-fold increase in concentration,[4],10
same,Rates of Hydrolysis Based on 2-ethyl-butanol production,"[4]; pH 7.0, 30 °C, 100 mg/L",0.105 µmol/day
same,Rates of Hydrolysis Based on 2-ethyl-butanol production,[4]; [13],0.011 µmol/day
same,Rates of Hydrolysis Based on 2-ethyl-butanol production,"[4]; pH 9.0, 30 °C, 10 mg/L",0.022 µmol/day
"CCCC(=O)O[Si](OC(=O)CCC)(OC(=O)CCC)OC(=O)CCC [compound 7, Silicon tetrabutyrate]",Hydrolysis rate,[2]; [11],Fast
CCCCO[Si](OCCCC)(OCCCC)O[Si](OCCCC)(OCCCC)OCCCC [compound 21],Hydrolysis rate,[2]; [12],Slow (Slow - 1 month)
"CCCCO[Si](OCCCC)(OCCCC)OCCCC [compound 2, Tetrabutoxysilane]",Hydrolysis rate,[2]; [11],Slow (Slow - 1 month)
Tetraphenoxysilane [compound 4],Hydrolysis rate,[2]; [11],Very Fast
"CCC(C)CO[Si](OCC(C)CC)(OCC(C)CC)OCC(C)CC (stereo not drawn) [compound 13, Tetrakis(2-methylbutoxy) silane]",Hydrolysis rate,[2]; [11],Very Slow
"CCCO[Si](OCCC)(OCCC)OCCC [compound 1, Tetrapropoxysilane]",Hydrolysis rate,[2]; [11],Slow (Slow - 1 month)
c1ccc(O[Si](Oc2ccccc2)(Oc2ccccc2)O[Si](Oc2ccccc2)(Oc2ccccc2)Oc2ccccc2)cc1 [compound 22],Hydrolysis rate,[2]; [12],Slow (Slow - 1 month)
"CC(=O)O[Si](OC(C)=O)(OC(C)=O)OC(C)=O [compound 5, Silicon tetraacetate]",Hydrolysis rate,[2]; [11],Very Fast
"ClC=C(Cl)Cl [TCE, Trichloroethylene]",TCE transformation in acetylene-blocked microcosm,"[6]; TBOS and TCE, acetylene in head space, in 140 hours",about 20%
same,time to complete cometabolism of TCE,"[6]; TCE 0.89 mg/L (1.6 μmol), microcosm with TBOS 20 mg/L added",≤ 65 h
same,"TCE cometabolism by resting cells, less than that achieved with TBOS addition","[6]; resting cells, no TBOS added",15-20%
same,incubation time after which dechlorination of the substance was observed,[1]; TBOS 1 g/L,40 days
same,anaerobic TCE transformation in initial experiments (in words),"[7]; 125 mL serum bottles, groundwater microcosms",complete transformation of TCE to cis-DCE
same,time for dechlorination of TCE to cis-DCE,"[7]; TCE 100 mg/L, September '97 groundwater containing TKEBS and 2-ethylbutanol, 30 °C",14 days
same,TCE transformation (in words),[8],rapidly transformed to c-DCE
Cl[C@@H]1O[C@@H]1Cl [cis-DCE epoxide],half-life of abiotic transformation of cis-DCE epoxide,[9],70 h
same,half-life of cis-DCE epoxide transformation,[10],about 35 hours
Tetrakis(benzylmethoxy) silane [compound 16],Hydrolysis rate,[2]; [11],Fast
"CC(C)CO[Si](OCC(C)C)(OCC(C)C)OCC(C)C [compound 15, Tetrakis(2-methylpropoxy) silane]",Hydrolysis rate,[2]; [11],Slow (Slow - 1 month)
"CCC(C)O[Si](OC(C)CC)(OC(C)CC)OC(C)CC (stereo not drawn) [compound 14, Tetrakis(1-methylpropoxy) silane]",Hydrolysis rate,[2]; [11],Slow (Slow - 1 month)
"c1ccc(O[Si](Oc2ccccc2)(Oc2ccccc2)Oc2ccccc2)cc1 [No. 4, Tetraphenoxysilane]",period over which hydrolysis to the alcohol occurs,[3],weeks
"C=CCO[Si](OCC=C)(OCC=C)OCC=C [compound 11, Tetraallyloxy silane]",Hydrolysis rate,[2]; [11],Slow (Slow - 1 month)
"CC(C)O[Si](OC(C)C)(OC(C)C)OC(C)C [compound 18, Tetrakis(1-methylethoxy) silane]",Hydrolysis rate,[2]; [11],Slow (Slow - 1 month)
